Measured values from ChEMBL document CHEMBL1201862, “PubChem BioAssay data set” (2004).
The source made the active and inactive calls.

Legend:
[1] = system: Streptococcus sp. 'group A'; assay: Streptococcus pyogenes SK(-)GAS viability under kanamycin – luminescence, BacTiterGlo, confirmation, counter-screen for streptokinase expression inhibitor project, dose response (AID 1900); assay type: functional, organism-based
[2] = target: T1, Streptokinase A (Streptococcus pyogenes serotype M1, UniProt P10520); assay: viability-normalized secreted streptokinase activity reduction – plasminogen activation absorbance, OD405, dose response (AID 1914); assay type: functional, Streptococcus pyogenes M1 GAS;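 further: secreted streptokinase activity via plasminogen activation per viability signal from cell pellet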
T1 sequence (P10520 whole entry): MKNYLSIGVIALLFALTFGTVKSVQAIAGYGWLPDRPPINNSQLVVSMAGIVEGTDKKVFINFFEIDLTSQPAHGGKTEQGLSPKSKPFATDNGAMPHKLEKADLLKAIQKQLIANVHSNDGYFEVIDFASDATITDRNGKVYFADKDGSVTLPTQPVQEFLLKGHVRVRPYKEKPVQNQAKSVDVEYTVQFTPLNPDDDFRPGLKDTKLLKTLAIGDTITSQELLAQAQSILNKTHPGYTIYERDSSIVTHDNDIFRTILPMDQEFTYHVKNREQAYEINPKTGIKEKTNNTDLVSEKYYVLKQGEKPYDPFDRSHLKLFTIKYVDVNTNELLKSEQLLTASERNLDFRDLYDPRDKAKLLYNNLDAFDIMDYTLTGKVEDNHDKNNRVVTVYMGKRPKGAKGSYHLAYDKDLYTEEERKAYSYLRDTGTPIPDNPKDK

[3] = system: Streptococcus; assay: GAS UMAA2166 growth inhibition – luminescence, BacTiterGlo, counter-screen for streptokinase expression inhibitor project, dose response (AID 1915); assay type: functional, organism-based;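 further: potency for reduction of bacterial viability or growth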
[4] = target: T2, Heat shock factor protein 1 (Mus musculus, UniProt P38532); assay: decrease of HSF1-responsive luciferase luminescence – cell-based, NIH3T3, dose retest, confirmation (AID 2382); assay type: functional;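 further: NIH3T3 fibroblasts with HSF1-driven luciferase reporter stressed by proteasome inhibitor MG132; luminescence from HSF1-driven luciferase expression after 8 hours of MG132 stress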
T2 sequence (P38532 whole entry): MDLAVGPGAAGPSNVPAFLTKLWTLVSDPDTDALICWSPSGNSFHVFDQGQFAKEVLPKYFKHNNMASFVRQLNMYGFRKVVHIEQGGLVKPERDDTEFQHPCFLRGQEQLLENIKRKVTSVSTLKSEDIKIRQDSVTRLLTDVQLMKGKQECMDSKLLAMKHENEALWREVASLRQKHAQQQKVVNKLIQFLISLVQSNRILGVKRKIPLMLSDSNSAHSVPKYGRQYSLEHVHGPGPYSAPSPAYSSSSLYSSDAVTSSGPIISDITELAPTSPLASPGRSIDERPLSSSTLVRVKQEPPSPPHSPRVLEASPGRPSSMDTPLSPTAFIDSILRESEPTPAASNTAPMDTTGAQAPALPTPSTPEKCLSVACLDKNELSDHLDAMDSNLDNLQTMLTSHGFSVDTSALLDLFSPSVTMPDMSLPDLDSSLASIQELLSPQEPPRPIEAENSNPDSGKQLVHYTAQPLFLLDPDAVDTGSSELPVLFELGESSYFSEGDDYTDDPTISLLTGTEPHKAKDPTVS

[5] = Trypanosoma cruzi growth suppression in host cells – NIH3T3 host cells, beta-gal luminescence, confirmation (AID 2044); assay type: functional, cell-based;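 further: intracellular parasites grown in NIH/3T3 mouse fibroblasts as host cells; luminescent beta-galactosidase reporter signal from transgenic T. cruzi replicating inside host cells; inhibitors lower the luminescence signal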
[6] = NIH3T3 cell viability loss – ATP luminescence, mouse fibroblasts, counter-screen, dose response (AID 2010); assay type: functional, cell-based;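 further: cells exposed to compound for about 90 hours before reading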
[7] = luciferase reporter signal suppression in cells – H4 neuroglioma cells, luminescence, dose response (AID 1990); assay type: functional, cell-based
[8] = Luminescence Cell-Based Dose Response HTS to Identify Inhibitors of 5'UTR Stem-Loop Driven Prion Protein mRNA Translation in H4 Neuroglioblastoma Cells. [Related pubchem assays: 1827 (Project Summary), 1813 (Primary HTS)]; assay type: functional
[9] = alpha-synuclein stem-loop luciferase translation blockers – H4 neuroglioma cells, luminescence, confirmation (AID 1988); assay type: functional, cell-based
[10] = Luminescence Cell-Based Dose Retest to Confirm Inhibitors of Cancer Stem Cells. [Related pubchem assays (depositor defined):AID2717, AID2721]; assay type: functional; details: Homo sapiens
[11] = target: Cytochrome P450 2C19 (Homo sapiens, UniProt P33261); assay: Cytochrome panel assay with activity outcomes. Panel member name: p450-cyp2c19 Compounds with AC50 equal or less than 10 uM are considered active; assay type: functional
Cytochrome P450 2C19, sequence (P33261 whole entry): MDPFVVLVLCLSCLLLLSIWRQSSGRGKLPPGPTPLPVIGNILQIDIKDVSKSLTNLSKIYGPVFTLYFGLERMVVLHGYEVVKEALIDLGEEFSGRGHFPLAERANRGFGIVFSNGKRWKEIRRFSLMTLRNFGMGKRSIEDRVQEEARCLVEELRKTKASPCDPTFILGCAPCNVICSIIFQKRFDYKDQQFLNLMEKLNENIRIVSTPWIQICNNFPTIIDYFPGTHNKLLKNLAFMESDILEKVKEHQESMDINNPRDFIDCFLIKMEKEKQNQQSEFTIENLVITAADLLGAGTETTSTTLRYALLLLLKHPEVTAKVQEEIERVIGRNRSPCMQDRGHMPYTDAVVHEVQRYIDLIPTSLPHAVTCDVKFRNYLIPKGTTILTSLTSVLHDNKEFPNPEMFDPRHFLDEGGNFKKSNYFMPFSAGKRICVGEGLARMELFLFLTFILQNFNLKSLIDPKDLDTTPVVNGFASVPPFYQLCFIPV

O=C(OCc1ccc(COC(=O)c2ccc(O)cc2)cc1)c1ccc(O)cc1
EC50 [1]: 5.67 µM (active)
EC50 [2]: > 150 µM (not active)
EC50 [3]: 8.51 µM (active)

O=C(NCc1ccco1)C1CCN(S(=O)(=O)c2cccc([N+](=O)[O-])c2)CC1
EC50 [4]: > 195 µM (not active)

COc1ccc([C@@H]2C[C@@H](c3ccccc3)Oc3c(C)ccc(C(C)C)c32)cc1
EC50 [4]: > 195 µM (not active)

CCCCCSc1nc(C)c(CC(=O)O)c(O)n1
EC50 [4]: > 195 µM (not active)

Cc1ccc(CCNC(=O)CN=C(S)N(Cc2ccccc2)Cc2cccnc2)cc1
EC50 [5]: 1.28 µM (active)
EC50 [6]: > 60 µM (not active)

COc1cc(C(=O)N2CCN(C(=O)CC(C)C)CC2)cc(OC)c1OC
EC50 [4]: 9.31 µM (active)

COc1ccc(OC)c(NC(=O)C2CCCN(S(=O)(=O)c3c(C)nn(C)c3C)C2)c1 (centres undefined)
EC50 [4]: > 195 µM (not active)

Brc1ccccc1-c1nnc2sc(Cc3ccccc3)nn12
EC50 [7]: 64.7 µM (active)
EC50 [8]: > 120 µM (not active)
EC50 [9]: > 120 µM (not active)

Cc1ccc2nc3c(cc(S(=O)(=O)c4ccccc4)c(=N)n3Cc3ccco3)c(=O)n2c1
EC50 [5]: 3 µM (active)
EC50 [6]: > 60 µM (not active)

COc1cc(CNc2ccc(CNc3nc[nH]n3)cc2)ccc1OCc1ccccc1
AC50 [10]: 2.25 µM (active)

C[C@@]12CC[C@H](O)C[C@@H]1CC[C@H]1[C@@H]2C[C@@H](O)[C@]2(C)[C@@H](C3=CC(=O)OC3)CC[C@]12O
AC50 [11]: inconclusive

Cc1ccc(OCC(=O)Nc2ccccc2C(=O)N2CCCCC2)cc1
EC50 [4]: > 195 µM (not active)

CCC(C)n1c(C)nc2c(c1=O)c1nc3ccccc3nc1n2CCC1=CCCCC1 (centres undefined)
EC50 [5]: 3.7 µM (active)
EC50 [6]: > 60 µM (not active)

CC(C)(CNC(=O)c1ccccc1)CNC1=NS(=O)(=O)c2ccccc21
EC50 [1]: > 150 µM (not active)
EC50 [2]: > 150 µM (not active)
EC50 [3]: > 150 µM (not active)

CC1CCCN(CC(O)COCC2COc3ccccc3O2)C1 (centres undefined)
AC50 ([11]; read-out: AC50): 5.01 µM (inconclusive)

COc1ccc(C(=O)C2CCCN(Cc3sc(N4CCCC4)nc3Cl)C2)c(OC)c1 (centres undefined)
EC50 [5]: 0.927 µM (active)
EC50 [6]: > 60 µM (not active)

CCCOC(=O)c1ccc(Oc2c(-c3ccc(OCC)cc3O)n[nH]c2C)cc1
EC50 [2]: > 150 µM (not active)

Cc1cc(C)cc(N2C(=O)CN(Cc3ccccc3)C2=S)c1
EC50 [4]: > 195 µM (not active)

CCCOc1ccc(Cn2c(=O)oc3ccc(C)cc32)cc1OC
EC50 [4]: > 195 µM (not active)

Cc1ccc(OCCCCN2CCCCC2)c(Br)c1
EC50 [5]: 2.16 µM (active)
EC50 [6]: > 60 µM (not active)

Cc1ccc(-n2nc3c(N4CCC(C(=O)NCCc5cccs5)CC4)nnc(C)c3c2C)cc1
EC50 [7]: 19.2 µM (active)
EC50 [8]: > 120 µM (not active)

CCc1c(-c2ccccc2)nc2sc3c(c2c1N)CCCC3
EC50 [5]: 2.01 µM (active)
EC50 [6]: > 60 µM (not active)

COc1ccc(-c2csc(N(CCc3ccc(OC)c(OC)c3)C(=O)COc3ccccc3)n2)cc1
EC50 [4]: > 195 µM (not active)

O=C(O)c1ccc(Cl)c(S(=O)(=O)N(Cc2ccccc2)c2ccc(F)cc2)c1
AC50 [10]: 31.2 µM (active)

CCC(C)Oc1cc(-c2ccnc(Nc3cccc(Cl)c3)n2)ccn1 (centres undefined)
EC50 [5]: 1.7 µM (active)
EC50 [6]: 7.53 µM (active)

CC(C)CCNC(=O)C1CCC(CNS(=O)(=O)c2cccc3nsnc23)CC1 (centres undefined)
EC50 [5]: > 30 µM (not active)
EC50 [6]: > 30 µM (not active)

Cc1ccc(C(C)C)c(OCC(=O)NC2CCN(C)CC2)c1
EC50 [5]: 1.21 µM (active)
EC50 [6]: > 60 µM (not active)

CC1C=Cc2ccccc2N1C(=O)c1ccccc1 (centres undefined)
EC50 [4]: > 195 µM (not active)
